Numbering of substitutions follows the chain as printed.
Key:
[1] = design: species or system Mice; conditions: in vivo
KCC2 = target: T1, KCC2 (Homo sapiens, UniProt Q9H2X9); assay: cellular thermal shift assay (CETSA), HEK-293 cells expressing KCC2; type: binding
T1 construct: expressed in transfected cells; host or cells: HEK-293 (ATCC CRL-1573), transient transfection
T1 sequence (Q9H2X9 1-1116 isoform Q9H2X9-2): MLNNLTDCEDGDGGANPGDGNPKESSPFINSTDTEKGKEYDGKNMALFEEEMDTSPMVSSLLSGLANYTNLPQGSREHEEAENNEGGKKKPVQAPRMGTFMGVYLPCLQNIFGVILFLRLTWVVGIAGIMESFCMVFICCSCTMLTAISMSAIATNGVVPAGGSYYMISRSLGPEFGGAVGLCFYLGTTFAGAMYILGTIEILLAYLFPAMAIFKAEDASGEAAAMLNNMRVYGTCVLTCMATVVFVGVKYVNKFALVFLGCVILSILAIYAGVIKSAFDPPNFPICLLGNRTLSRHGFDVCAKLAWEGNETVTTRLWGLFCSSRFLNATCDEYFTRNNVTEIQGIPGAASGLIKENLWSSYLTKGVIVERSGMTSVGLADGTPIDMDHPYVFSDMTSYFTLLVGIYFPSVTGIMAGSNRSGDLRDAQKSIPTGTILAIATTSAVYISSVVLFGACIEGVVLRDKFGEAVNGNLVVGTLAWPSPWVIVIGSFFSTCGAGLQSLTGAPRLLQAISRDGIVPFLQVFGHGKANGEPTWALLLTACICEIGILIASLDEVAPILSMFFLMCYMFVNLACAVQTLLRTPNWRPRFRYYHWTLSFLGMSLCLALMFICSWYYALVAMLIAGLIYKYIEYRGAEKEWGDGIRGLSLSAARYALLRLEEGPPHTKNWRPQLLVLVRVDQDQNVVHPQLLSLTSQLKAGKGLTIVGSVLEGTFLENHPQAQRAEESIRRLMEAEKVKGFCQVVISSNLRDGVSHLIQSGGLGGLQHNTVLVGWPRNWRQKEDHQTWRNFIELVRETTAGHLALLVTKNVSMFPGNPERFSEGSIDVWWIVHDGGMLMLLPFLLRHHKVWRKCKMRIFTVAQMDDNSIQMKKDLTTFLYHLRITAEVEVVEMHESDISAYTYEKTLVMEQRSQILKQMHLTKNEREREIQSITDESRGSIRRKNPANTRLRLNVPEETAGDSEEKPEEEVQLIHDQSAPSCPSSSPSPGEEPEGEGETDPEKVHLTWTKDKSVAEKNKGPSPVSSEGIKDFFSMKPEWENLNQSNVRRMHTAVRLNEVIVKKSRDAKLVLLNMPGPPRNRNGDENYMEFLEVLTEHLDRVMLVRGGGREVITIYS
Method: Determining if compounds in SSA directly interact with KCC2. This was tested using a cellular thermal shift assay (CETSA), which measures the ability of a drug to modify the thermal stability of its target in whole cells (Kawatkar et al., ACS Chem. Biol. 14, 1913-1920 (2019); Martinez et al., Sci Rep 8, 9472 (2018)).
2×10^6 transfected HEK-293 cells were incubated with 30 μM drug or vehicle for 90 min at 37° C. and then heated from 37-58° C. for 5 min. Cells were rapidly chilled to 25° C. and NP40 was added to a final concentration […] to snap freezing in liquid nitrogen. Following 5 freeze/thaw cycles lysates were centrifuged at 12,000×g to remove denatured proteins and associated cell debris.
Aliquots of HEK-293 cells expressing KCC2 were exposed to 30 μM SSA, heated from 37-55° C. The remaining level of soluble native KCC2 at each temperature was measured by immunoblotting and normalized to the level seen at 37° C. which was given a value of 1. […] This panel included protein kinase C isoforms, OSR1, SPAK (STK39) and with-no-lysine kinases (WNK), all of which phosphorylate KCC2 on multiple residues to indirectly modify its activity (Kahle et al., 2013, supra; Smalley et al., 2020, supra).

[2] = test system: acute brain slices exposed to 0-Mg; assay: late recurrent discharges in acute brain slices exposed to 0-Mg
[3] = PK studies, brain and plasma levels by LC-MS/MS; type: in vivo, Mice; conditions: 50 mg/kg SC
Method: PK studies. […] Plasma and brain samples were rapidly frozen on dry ice.
Drug accumulation in the brain was examined following SC injection (FIG. 4C; 50 mg/kg).

[4] = test system: neuronal cell death in the hippocampus; assay: neuronal cell death in the hippocampus, mice treated with Compound A and diazepam; type: in vivo; conditions: Compound A and diazepam vs diazepam alone
KCC2-S940A = target: T2, KCC2-S940A (Homo sapiens, UniProt Q9H2X9, S963A); assay: Tl+ flux assay, HEK-293 cells expressing KCC2-S940A; type: cell-based
T2 construct: expressed in transfected cells; host or cells: HEK-293
T2 sequence (Q9H2X9 1-1116 isoform Q9H2X9-2 S940A): T1 sequence (Q9H2X9 1-1116 isoform Q9H2X9-2) with S940A
Method: FLIPR TI Flux assay. HEK-293 cells were washed with HBSS, and then incubated with loading buffer containing TI sensitive fluorescent dye (https://www.moleculardevices.com), 20 μM bumetanide 20 μM ouabain and 2.5 mM probenecid for 1 h at room temperature (RT) under control conditions or with drugs in the dark using a FlexStation 3 microplate reader (Molecular Devices) and imaged […] for 30 min. Stimulus buffer was added containing 5 mM K^+/0.5 mM Tl^+ and cells were imaged every 1.5 over a 190 second time course The initial rate Tl^+ uptake (Relative Fluorescence Units (RFU) per second) was determined following addition of the stimulus buffer as outlined previously (Conway et al., 2017, supra) (Lee et al., 2022, supra).
Several studies have shown that the activity and plasma membrane accumulation of KCC2 is potentiated via phosphorylation of S940, a process mediated by the activity of protein kinase C and protein phosphatase 1 (Lee et al., 2011, supra, Lee et al., J Biol Chem 282, 29777-29784 (2007); Moore et al., Proc. Natl. Acad. Sci. U.S.A 115, 10166-10171 (2018); Moore et al., Trends Neurosci. 40, 555-571 (2017); Silayeva et al., Proc. Natl. Acad. Sci. U.S.A 112, 3523-3528 (2015)). […] Compared to KCC2, effects on KCC3, KCC4, and NKCC1 were only seen at concentrations more than 35-fold that of KCC2 (>100 μM) (FIG. 1G).

[5] = test system: panel of 144 protein kinases; assay: panel of 144 protein kinases (SelectScreen; Thermofisher); type: biochemical; conditions: 144 protein kinases incl. PKC isoforms, OSR1, SPAK, WNK

SMILES: C[C@@H]1CN(c2nc3c(c(Nc4ccc(C5CCCCC5)cc4)n2)COC3)CCO1 [Compound A, (R)—N-(4-cyclohexylphenyl)-2-(2-methylmorpholino)-5,7-dihydrofuro[3,4-d]pyrimidin-4-amine]
- gross effects on mouse behavior [1]: no gross effects on mouse behavior
- direct binding to KCC2 (KCC2): capable of directly binding to KCC2
- development of late recurrent discharges (LRDs) [2]: reduced
- accumulation in the brain at 30 min [3]: detected
- brain level 8 h later [3]: maintained
- time of maximal concentration in the brain [3]: 4 h
- neuronal cell death in the hippocampus [4]: significantly reduced
- activity of KCC2-S940A construct (KCC2-S940A): increased the activity
- activity of kinase panel [5]: did not modify the activity

From patent US20260191875A1, “FUSED AMINO PYRIMIDINE COMPOUNDS FOR TREATMENT OF ADDICTION AND INSOMNIA” (Ovid Therapeutics Inc., priority 2024, published 2026)
